# Test results: the supplement of paper PMC10307832
# Compound: COc1cc(Nc2ncc(F)c(Nc3ccc4c(n3)NC(=O)C(C)(C)O4)n2)cc(OC)c1OC [R406] + Cc1nc(Nc2ncc(C(=O)Nc3c(C)cccc3Cl)s2)cc(N2CCN(CCO)CC2)n1 [Dasatinib] (partner 0.075 µM)
# Test: relative viability (nuclei count vs DMSO), 5 days (fraction); higher = more cells survive
# Conditions: first compound 8 µM
# Method in brief: (§1)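 A single step with final 0.05% Triton X-100, 1% formaldehyde and 1 ug/ml Hoechst fixed the cells and stained nuclei 5 days after treatment. Lung cancer cell lines in 1536-well plates had been treated by pin tool the day after seeding with one drug alone or a fixed anchor-drug dose plus five library-drug doses (not always all listed) in √10 steps, and nuclei were counted on 4× images. Relative viability is the ratio of nuclei in treated wells to nuclei in vehicle wells, taken as the median of duplicate plates.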
row,Cell Line,relative viability
1,NCI-H1915,0.269
2,HCC-827,0.229
3,LXF-289,0.0357
4,NCI-H23,0.748
5,NCI-H650,0.425
6,CAL-12T,0.0797
7,NCI-H1651,0.198
8,EPLC-272H,0.102
9,NCI-H2228,0.135
10,NCI-H1355,0.32
11,NCI-H3122,0.491
12,NCI-H1437,0.131
13,NCI-H1755,0.135
14,NCI-H2023,0.0963

# Compound: COc1cc(Nc2ncc(F)c(Nc3ccc4c(n3)NC(=O)C(C)(C)O4)n2)cc(OC)c1OC [R406] + O=C(CCCCCCC(=O)Nc1ccccc1)NO [Vorinostat] (partner 1 µM)
# Test: as above
# Conditions: first compound 0.08 µM
# Method in brief: as §1
row,Cell Line,relative viability
1,NCI-H1793,0.632
2,NCI-H2405,1
3,HOP-62,0.66
4,SK-MES-1,1.05
5,LU99A,0.519
6,BEN,0.606
7,HARA,0.66
8,SW 900,0.475
9,NCI-H322M,0.816
10,LCLC-97TM1,0.732
11,NCI-H2009,0.711
12,A-427,0.856
13,NCI-H460,0.673
14,NCI-H727,1.01
15,NCI-H1734,0.747
16,NCI-H520,0.671
17,NCI-H2347,0.586

row,Cell Line,relative viability
1,SW 1573,0.57
2,NCI-H1395,0.633
3,201T,0.893
4,NCI-H1915,0.506
5,HCC-827,0.791
6,LXF-289,0.632
7,NCI-H23,0.605
8,NCI-H650,0.494
9,CAL-12T,0.785
10,NCI-H1651,0.557
11,EPLC-272H,0.29
12,NCI-H2228,0.693
13,NCI-H1355,0.72
14,NCI-H3122,0.884
15,NCI-H1437,0.901
16,NCI-H1755,0.778
17,NCI-H2023,0.732

# Same assay, conditions: first compound 0.253 µM
row,Cell Line,relative viability
1,NCI-H1793,0.967
2,NCI-H2405,1.39
3,HOP-62,0.803
4,SK-MES-1,1.14
5,LU99A,0.484
6,BEN,0.601
7,HARA,0.606
8,SW 900,0.844
9,NCI-H322M,0.873
10,LCLC-97TM1,0.908
11,NCI-H2009,0.749
12,A-427,0.928
13,NCI-H460,1.04
14,NCI-H727,1.26
15,NCI-H1734,0.918
16,NCI-H520,0.698
17,NCI-H2347,0.651

row,Cell Line,relative viability
1,SW 1573,1.18
2,NCI-H1395,0.731
3,201T,1.02
4,NCI-H1915,0.631
5,HCC-827,0.853
6,LXF-289,0.772
7,NCI-H23,0.635
8,NCI-H650,0.442
9,CAL-12T,0.723
10,NCI-H1651,0.612
11,EPLC-272H,0.444
12,NCI-H2228,0.64
13,NCI-H1355,0.71
14,NCI-H3122,1.1
15,NCI-H1437,0.983
16,NCI-H1755,0.861
17,NCI-H2023,0.784

# Same assay, conditions: first compound 0.8 µM
row,Cell Line,relative viability
1,NCI-H1793,0.928
2,NCI-H2405,1.14
3,HOP-62,0.836
4,SK-MES-1,1.21
5,LU99A,0.553
6,BEN,0.607
7,HARA,0.515
8,SW 900,0.577
9,NCI-H322M,0.864
10,LCLC-97TM1,1.38
11,NCI-H2009,0.785
12,A-427,0.852
13,NCI-H460,0.917
14,NCI-H727,1.22
15,NCI-H1734,0.909
16,NCI-H520,0.668
17,NCI-H2347,0.767

row,Cell Line,relative viability
1,SW 1573,0.947
2,NCI-H1395,0.843
3,201T,1.02
4,NCI-H1915,0.546
5,HCC-827,0.892
6,LXF-289,0.787
7,NCI-H23,0.734
8,NCI-H650,0.495
9,CAL-12T,0.758
10,NCI-H1651,0.615
11,EPLC-272H,0.511
12,NCI-H2228,0.786
13,NCI-H1355,0.733
14,NCI-H3122,1.03
15,NCI-H1437,0.84
16,NCI-H1755,0.757
17,NCI-H2023,0.618

# Same assay, conditions: first compound 2.53 µM
row,Cell Line,relative viability
1,NCI-H1793,0.128
2,NCI-H2405,0.624
3,HOP-62,0.464
4,SK-MES-1,0.996
5,LU99A,0.361
6,BEN,0.555
7,HARA,0.489
8,SW 900,0.134
9,NCI-H322M,0.633
10,LCLC-97TM1,0.569
11,NCI-H2009,0.739
12,A-427,0.939
13,NCI-H460,0.645
14,NCI-H727,1.24
15,NCI-H1734,0.366
16,NCI-H520,0.384
17,NCI-H2347,0.383

row,Cell Line,relative viability
1,SW 1573,0.658
2,NCI-H1395,0.399
3,201T,0.795
4,NCI-H1915,0.403
5,HCC-827,0.788
6,LXF-289,0.654
7,NCI-H23,0.155
8,NCI-H650,0.439
9,CAL-12T,0.762
10,NCI-H1651,0.547
11,EPLC-272H,0.286
12,NCI-H2228,0.281
13,NCI-H1355,0.385
14,NCI-H3122,0.923
15,NCI-H1437,0.835
16,NCI-H1755,0.642
17,NCI-H2023,0.391

# Same assay, conditions: first compound 8 µM
row,Cell Line,relative viability
1,NCI-H1793,0.182
2,NCI-H2405,0.245
3,HOP-62,0.463
4,SK-MES-1,0.158
5,LU99A,0.312
6,BEN,0.542
7,HARA,0.515
8,SW 900,0.15
9,NCI-H322M,0.468
10,LCLC-97TM1,0.468
11,NCI-H2009,0.363
12,A-427,0.621
13,NCI-H460,0.742
14,NCI-H727,1.18
15,NCI-H1734,0.309
16,NCI-H520,0.162
17,NCI-H2347,0.397

row,Cell Line,relative viability
1,SW 1573,0.305
2,NCI-H1395,0.417
3,201T,0.749
4,NCI-H1915,0.369
5,HCC-827,0.817
6,LXF-289,0.616
7,NCI-H23,0.216
8,NCI-H650,0.331
9,CAL-12T,0.509
10,NCI-H1651,0.545
11,EPLC-272H,0.168
12,NCI-H2228,0.175
13,NCI-H1355,0.439
14,NCI-H3122,0.928
15,NCI-H1437,0.602
16,NCI-H1755,0.468
17,NCI-H2023,0.312

# Compound: O=C(/C=C/c1cccnc1)NCCCCC1CCN(C(=O)c2ccccc2)CC1 [Daporinad] + Cc1cc(Nc2cc(N3CCN(C)CC3)nc(Sc3ccc(NC(=O)C4CC4)cc3)n2)n[nH]1 [Tozasertib] (partner 0.1 µM)
# Test: as above
# Conditions: first compound 0.0005 µM
# Method in brief: as §1
row,Cell Line,relative viability
1,NCI-H1793,0.327
2,NCI-H2405,0.82
3,HOP-62,0.379
4,SK-MES-1,0.85
5,LU99A,0.26
6,BEN,0.552
7,HARA,0.117
8,SW 900,0.638
9,NCI-H322M,0.572
10,LCLC-97TM1,0.194
11,NCI-H2009,0.76
12,A-427,0.207
13,NCI-H460,0.43
14,NCI-H727,0.737
15,NCI-H1734,0.283
16,NCI-H520,0.446
17,NCI-H2347,0.597

row,Cell Line,relative viability
1,SW 1573,0.185
2,NCI-H1395,0.7
3,201T,0.854
4,NCI-H1915,0.476
5,HCC-827,0.428
6,LXF-289,0.23
7,NCI-H23,0.421
8,NCI-H650,0.691
9,CAL-12T,0.324
10,NCI-H1651,0.615
11,EPLC-272H,0.256
12,NCI-H2228,0.264
13,NCI-H1355,0.519
14,NCI-H3122,0.376
15,NCI-H1437,0.49
16,NCI-H1755,0.449
17,NCI-H2023,0.438

# Same assay, conditions: first compound 0.001581 µM
row,Cell Line,relative viability
1,NCI-H1793,0.326
2,NCI-H2405,0.783
3,HOP-62,0.432
4,SK-MES-1,0.948
5,LU99A,0.254
6,BEN,0.547
7,HARA,0.105
8,SW 900,0.473
9,NCI-H322M,0.485
10,LCLC-97TM1,0.432
11,NCI-H2009,0.706
12,A-427,0.22
13,NCI-H460,0.386
14,NCI-H727,0.608
15,NCI-H1734,0.262
16,NCI-H520,0.507
17,NCI-H2347,0.636

row,Cell Line,relative viability
1,SW 1573,0.183
2,NCI-H1395,0.764
3,201T,0.94
4,NCI-H1915,0.401
5,HCC-827,0.445
6,LXF-289,0.188
7,NCI-H23,0.374
8,NCI-H650,0.853
9,CAL-12T,0.325
10,NCI-H1651,0.814
11,EPLC-272H,0.292
12,NCI-H2228,0.201
13,NCI-H1355,0.558
14,NCI-H3122,0.403
15,NCI-H1437,0.401
16,NCI-H1755,0.544
17,NCI-H2023,0.334

# Same assay, conditions: first compound 0.005 µM
row,Cell Line,relative viability
1,NCI-H1793,0.34
2,NCI-H2405,0.954
3,HOP-62,0.332
4,SK-MES-1,1.08
5,LU99A,0.29
6,BEN,0.422
7,HARA,0.109
8,SW 900,0.735
9,NCI-H322M,0.396
10,LCLC-97TM1,0.181
11,NCI-H2009,0.724
12,A-427,0.198
13,NCI-H460,0.6
14,NCI-H727,0.555
15,NCI-H1734,0.285
16,NCI-H520,0.25
17,NCI-H2347,0.504

row,Cell Line,relative viability
1,SW 1573,0.166
2,NCI-H1395,0.771
3,201T,1
4,NCI-H1915,0.485
5,HCC-827,0.513
6,LXF-289,0.176
7,NCI-H23,0.424
8,NCI-H650,0.738
9,CAL-12T,0.158
10,NCI-H1651,0.601
11,EPLC-272H,0.493
12,NCI-H2228,0.322
13,NCI-H1355,0.58
14,NCI-H3122,0.421
15,NCI-H1437,0.405
16,NCI-H1755,0.533
17,NCI-H2023,0.503

# Same assay, conditions: first compound 0.01581 µM
row,Cell Line,relative viability
1,NCI-H1793,0.553
2,NCI-H2405,0.888
3,HOP-62,0.353
4,SK-MES-1,0.865
5,LU99A,0.249
6,BEN,0.546
7,HARA,0.0561
8,SW 900,0.346
9,NCI-H322M,0.312
10,LCLC-97TM1,0.253
11,NCI-H2009,0.555
12,A-427,0.153
13,NCI-H460,0.56
14,NCI-H727,0.62
15,NCI-H1734,0.263
16,NCI-H520,0.184
17,NCI-H2347,0.596

row,Cell Line,relative viability
1,SW 1573,0.178
2,NCI-H1395,0.839
3,201T,0.958
4,NCI-H1915,0.494
5,HCC-827,0.446
6,LXF-289,0.148
7,NCI-H23,0.295
8,NCI-H650,0.835
9,CAL-12T,0.124
10,NCI-H1651,0.663
11,EPLC-272H,0.4
12,NCI-H2228,0.294
13,NCI-H1355,0.631
14,NCI-H3122,0.405
15,NCI-H1437,0.4
16,NCI-H1755,0.638
17,NCI-H2023,0.371
